In patent publication US10294202B2, “Pyrrolidinones as herbicides” (FMC Corporation, priority 2013, dated 2019):
Where two headings read alike, the source gives them in different places.

Experiments:
[1] = test system: giant foxtail; assay: Test A pre-/postemergence herbicide test; format: in vivo, Setaria faberii; details: for pest or weed control at 125 g/ha / pest or weed control at 500 g/ha / pest or weed control at 1000 g/ha: Setaria faberi, 240 h, read-out: Plant response rating, Foxtail, Giant; for pest or weed control at 1000 g/ha: 1000 g ai/ha
Outline: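 Scoring was visual, relative to untreated controls, on a 0–100 scale after about 10 greenhouse days. Preemergence treatment used a directed soil spray over seeded loam/sand; postemergence treatment targeted one- to two-leaf plants of 2–10 cm.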

[2] = test system: corn; assay: Test C pre-/postemergence herbicide test; format: in vivo, Zea mays
Outline: (§1)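 Response scores range from 0, meaning no effect, to 100, meaning complete control, assigned visually by comparison with controls roughly two weeks (13 to 15 days) after spraying. Applications were made preemergence to seeded loam–sand soil and postemergence to 1- to 4-leaf plants.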

[3] = test system: crabgrass, large; assay: Test C pre-/postemergence herbicide test; format: in vivo, Digitaria sanguinalis
Outline: as §1

[4] = test system: foxtail, giant; assay: Test C pre-/postemergence herbicide test; format: in vivo, Setaria faberii
Outline: as §1

[5] = test system: pigweed; assay: Test C pre-/postemergence herbicide test; format: in vivo, Amaranthus retroflexus
Outline: as §1

[6] = test system: velvetleaf; assay: Test C pre-/postemergence herbicide test; format: in vivo, Abutilon theophrasti
Outline: as §1

[7] = test system: ducksalad; assay: Test C flooded paddy test; format: in vivo, Heteranthera limosa; details: Flood
Outline: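 Visual injury scored against controls after 13 to 15 days in the greenhouse, using 0 (no effect) to 100 (complete control). Test compounds went straight into paddy water held 3 cm above the soil surface on 2-leaf-stage plants, with that flood depth maintained for the whole test.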

[8] = Preemergence, 62 g ai/ha, scale 0 to 100
[9] = Preemergence, 125 g ai/ha, scale 0 to 100 (0 no effect, 100 complete control)
[10] = Preemergence, 31 g ai/ha, scale 0 to 100 (0 no effect, 100 complete control)
[11] = Preemergence, 250 g ai/ha, scale 0 to 100 (0 no effect, 100 complete control)
[12] = 62 g ai/ha, scale of 0 to 100 where 0 is no effect and 100 is complete control, 13 to 15 days
[13] = 125 g ai/ha, scale of 0 to 100 where 0 is no effect and 100 is complete control, 13 to 15 days
[14] = Postemergence, 31 g ai/ha, scale 0 (no effect) to 100 (complete control)
[15] = Postemergence, 62 g ai/ha, scale 0 to 100 (0 no effect, 100 complete control)
[16] = Postemergence, 125 g ai/ha, scale 0 to 100 (0 no effect, 100 complete control)
[17] = Postemergence, 250 g ai/ha, scale 0 to 100 (0 no effect, 100 complete control)
[18] = Postemergence, 31 g ai/ha, scale 0 to 100 (0 no effect, 100 complete control)
[19] = Postemergence, 62 g ai/ha, scale 0 (no effect) to 100 (complete control)
[20] = Preemergence, 31 g ai/ha, scale 0 to 100, 0 is no effect and 100 is complete control
[21] = Preemergence, 62 g ai/ha, scale 0 to 100 (0 no effect, 100 complete control)

## O=C1NCCC1C(=O)N(c1ccc(F)c(F)c1)c1ccccc1F (centres unmarked) [Compound 5, N-(3,4-difluorophenyl)-N-(2-fluorophenyl)-2-oxo-3-pyrrolidinecarboxamide]
[1]; Preemergence, 125 g ai/ha, visual rating on 0 to 100 scale (0 no effect, 100 complete control)
  Foxtail, Giant plant response rating: 90
[1]; post-emergence, Postemergence, 125 g ai/ha, 0 to 100 scale, 0 no effect, 100 complete control
  pest or weed control at 125 g/ha: 80%
[1]; post-emergence, Postemergence, 500 g ai/ha, 0 to 100 scale (0 no effect, 100 complete control)
  pest or weed control at 500 g/ha: 80%
[1]; pre-emergence, preemergence, 500 g ai/ha, 0 to 100 scale
  pest or weed control at 500 g/ha: 100%
[2]; [8]
  Plant response rating, Corn: 0
[2]; [9]
  Plant response rating, Corn: 0
[2]; [10]
  Corn plant response rating: 0
[2]; [11]
  Plant response rating, Corn: 0
[3]; [8]
  Plant response rating, Crabgrass, Large: 100
[3]; [9]
  Plant response rating, Crabgrass, Large: 100
[3]; [10]
  Crabgrass, Large plant response rating: 100
[3]; [11]
  Plant response rating, Crabgrass, Large: 100
[4]; [8]
  Plant response rating, Foxtail, Giant: 100
[4]; [9]
  Plant response rating, Foxtail, Giant: 100
[4]; [10]
  Foxtail, Giant plant response rating: 95
[4]; [11]
  Plant response rating, Foxtail, Giant: 100
[5]; [8]
  Plant response rating, Pigweed: 0
[5]; [9]
  Plant response rating, Pigweed: 0
[6]; [8]
  Plant response rating, Velvetleaf: 0
[6]; [9]
  Plant response rating, Velvetleaf: 0
[7]; [12]
  Plant response rating, Ducksalad: 30
[7]; [13]
  Plant response rating, Ducksalad: 70
[7]; 250 g ai/ha, scale 0 to 100
  Plant response rating, Ducksalad: 80

## O=C1NCC(c2ccc(F)c(F)c2)C1C(=O)Nc1cccc(F)c1F (centres unmarked) [Compound 17, N-(2,3-difluorophenyl)-4-(3,4-difluorophenyl)-2-oxo-3-pyrrolidinecarboxamide]
[1]; post-emergence, Postemergence, 0 to 100 scale (0 no effect, 100 complete control)
  pest or weed control at 1000 g/ha: 90%
[1]; pre-emergence, Preemergence, visual rating on 0 to 100 scale (0 no effect, 100 complete control), approx. 10 days
  pest or weed control at 1000 g/ha: 90%
[2]; [14]
  Plant response rating, Corn: 0
[2]; [15]
  Plant response rating, Corn: 0
[2]; [16]
  Plant response rating, Corn: 0
[2]; [17]
  Plant response rating, Corn: 0
[2]; [8]
  Plant response rating, Corn: 0
[2]; [9]
  Plant response rating, Corn: 30
[2]; [10]
  Corn plant response rating: 0
[2]; [11]
  Plant response rating, Corn: 70
[3]; [14]
  Plant response rating, Crabgrass, Large: 0
[3]; [15]
  Plant response rating, Crabgrass, Large: 0
[3]; [16]
  Plant response rating, Crabgrass, Large: 45
[3]; [17]
  Plant response rating, Crabgrass, Large: 70
[3]; [8]
  Plant response rating, Crabgrass, Large: 98
[3]; [9]
  Plant response rating, Crabgrass, Large: 100
[3]; [10]
  Crabgrass, Large plant response rating: 95
[3]; [11]
  Plant response rating, Crabgrass, Large: 100
[4]; [14]
  Plant response rating, Foxtail, Giant: 0
[4]; [15]
  Plant response rating, Foxtail, Giant: 0
[4]; [16]
  Plant response rating, Foxtail, Giant: 0
[4]; [17]
  Plant response rating, Foxtail, Giant: 10
[4]; [8]
  Plant response rating, Foxtail, Giant: 95
[4]; [9]
  Plant response rating, Foxtail, Giant: 100
[4]; [10]
  Foxtail, Giant plant response rating: 90
[4]; [11]
  Plant response rating, Foxtail, Giant: 100
[5]; [14]
  Plant response rating, Pigweed: 0
[5]; [15]
  Plant response rating, Pigweed: 0
[5]; [16]
  Plant response rating, Pigweed: 0
[5]; [17]
  Plant response rating, Pigweed: 0
[5]; [8]
  Plant response rating, Pigweed: 0
[5]; [9]
  Plant response rating, Pigweed: 50
[6]; [14]
  Plant response rating, Velvetleaf: 0
[6]; [15]
  Plant response rating, Velvetleaf: 0
[6]; [16]
  Plant response rating, Velvetleaf: 0
[6]; [17]
  Plant response rating, Velvetleaf: 0
[6]; [8]
  Plant response rating, Velvetleaf: 0
[6]; [9]
  Plant response rating, Velvetleaf: 0
[7]; 31 g ai/ha, scale of 0 to 100 where 0 is no effect and 100 is complete control, 13 to 15 days
  Plant response rating, Ducksalad: 40
[7]; [12]
  Plant response rating, Ducksalad: 80
[7]; [13]
  Plant response rating, Ducksalad: 100
[7]; 250 g ai/ha, scale 0 to 100
  Plant response rating, Ducksalad: 100

## O=C1NC[C@H](c2cccc(C(F)(F)F)c2)[C@H]1C(=O)Nc1ccccc1F [Compound 204, (3R,4S)—N-(2-fluorophenyl)-2-oxo-4-[3-(trifluoromethyl)phenyl]-3-pyrrolidinecarboxamide]
[1]; Postemergence, 500 g ai/ha
  Foxtail, Giant plant response rating (0 to 100 scale, 0 is no effect, 100 is complete control): 90
[1]; post-emergence, Postemergence, 125 g ai/ha, 0 to 100 scale, 0 is no effect, 100 is complete control
  pest or weed control at 125 g/ha: 90%
[1]; pre-emergence, 125 g ai/ha, visual rating, 0 to 100 scale, 0 no effect, 100 complete control, approximately 10 days
  pest or weed control at 125 g/ha: 90%
[1]; pre-emergence, preemergence, 500 g ai/ha, 0 to 100 scale, 0 is no effect and 100 is complete control
  pest or weed control at 500 g/ha: 90%
[2]; [18]
  Plant response rating, Corn: 0
[2]; [19]
  Plant response rating, Corn: 0
[2]; [16]
  Plant response rating, Corn: 0
[2]; [17]
  Plant response rating, Corn: 40
[2]; [20]
  Corn plant response rating: 45
[2]; [21]
  Corn plant response rating: 25
[2]; [9]
  Plant response rating, Corn: 55
[2]; Preemergence, 250 g ai/ha
  Plant response rating (scale of 0 to 100), Corn: 75
[3]; [18]
  Plant response rating, Crabgrass, Large: 0
[3]; [19]
  Plant response rating, Crabgrass, Large: 50
[3]; [16]
  Plant response rating, Crabgrass, Large: 70
[3]; [17]
  Plant response rating, Crabgrass, Large: 80
[3]; [20]
  Crabgrass, Large plant response rating: 90
[3]; [21]
  Crabgrass, Large plant response rating: 90
[3]; [9]
  Plant response rating, Crabgrass, Large: 100
[3]; Preemergence, 250 g ai/ha
  Plant response rating (scale of 0 to 100), Crabgrass, Large: 95
[4]; [18]
  Plant response rating, Foxtail, Giant: 0
[4]; [19]
  Plant response rating, Foxtail, Giant: 10
[4]; [16]
  Plant response rating, Foxtail, Giant: 90
[4]; [17]
  Plant response rating, Foxtail, Giant: 90
[4]; [20]
  Foxtail, Giant plant response rating: 90
[4]; [21]
  Foxtail, Giant plant response rating: 90
[4]; [9]
  Plant response rating, Foxtail, Giant: 95
[4]; Preemergence, 250 g ai/ha
  Plant response rating (scale of 0 to 100), Foxtail, Giant: 95
[5]; [18]
  Plant response rating, Pigweed: 20
[5]; [19]
  Plant response rating, Pigweed: 10
[5]; [16]
  Plant response rating, Pigweed: 10
[5]; [17]
  Plant response rating, Pigweed: 10
[5]; [20]
  Pigweed plant response rating: 0
[5]; [21]
  Pigweed plant response rating: 0
[5]; [9]
  Plant response rating, Pigweed: 0
[5]; Preemergence, 250 g ai/ha
  Plant response rating (scale of 0 to 100), Pigweed: 75
[6]; [18]
  Plant response rating, Velvetleaf: 0
[6]; [19]
  Plant response rating, Velvetleaf: 0
[6]; [16]
  Plant response rating, Velvetleaf: 0
[6]; [17]
  Plant response rating, Velvetleaf: 10
[6]; [20]
  Velvetleaf plant response rating: 0
[6]; [21]
  Velvetleaf plant response rating: 0
[6]; [9]
  Plant response rating, Velvetleaf: 0
[6]; Preemergence, 250 g ai/ha
  Plant response rating (scale of 0 to 100), Velvetleaf: 30
[7]; [13]
  Plant response rating, Ducksalad: 50
[7]; 250 g ai/ha, scale of 0 to 100 where 0 is no effect and 100 is complete control, 13 to 15 days
  Plant response rating, Ducksalad: 95
[7]; 500 g ai/ha, scale 0 to 100
  Plant response rating, Ducksalad: 100
[7]; 1000 g ai/ha, scale 0 to 100
  Plant response rating, Ducksalad: 100
